In patent publication US20150307841A1, “Composition for Promoting Differentiation and Proliferation of Neural Stem Cell and Neural Precursor Cell” (priority 2014, published 2015):
“Also recorded” adds a separate entry of the source.

Tests used:
[1] = tested on: hippocampal neural precursor cells (NPCs); assay: NeuN, GFAP, TUJ1, MAP2 immunostaining of cultured embryonic neural precursor cells (differentiation, neurite outgrowth); type: cell-based, rat
Text: Pregnant Sprague-Dawley rats purchased from Orient Animal Breeding Center (a branch of Charles River Laboratories, Gyeonggi-do, Korea) were sacrificed by exposing to CO2 inhalation. Hippocampal neural precursor cells (NPCs) were isolated from the brain of the E16 rat embryo according to the method of Shin M H et al. (Exp Mol Med, 2002) with slight modifications.
Briefly, hippocampi were aseptically dissected from the embryonic forebrain, mechanically dissociated in Ca^2+/Mg^2+-free Hank's balanced salt solution (HBSS) and then plated at 7×10^5 cells/cm^2 on 60-mm dishes pre-coated with 15 μg/mL poly-L-ornithine and 1 μg/mL fibronectin. The neural precursor cells were cultured in serum-free N2 media supplemented with 10 ng/mL bFGF in 5% CO2 for 3 days and then detached using 0.05% trypsin-ethylenediaminetetraacetic acid (EDTA). The neural precursor cells were plated on 12-mm cover glasses (Bellco Co., Vineland, N.J., USA) and cultured one more day in N2 media supplemented with 10 ng/mL bFGF in 5% CO2 (primary culturing).
Following the primary culturing in (1), in order to confirm the differentiation of the neural precursor cells and the proliferation of the differentiated neurons, the neural precursor cells were cultured on 12-mm cover glasses (Bellco Co., Vineland, N.J., USA) for 4 days in bFGF-free N2 media with 2×10^4 cells/well. For double immunostaining of GFAP and NeuN, and TUJ1 and MAP2, the cells were cultured for only 2 days.
The immunostaining was carried out as previously described (Donaldson J G (2001) Immunofluorescence staining Curr Protoc Cell Biol Chapter 4: Unit 4.3) with minor modifications.
On the next day, after adding a vehicle (dimethyl sulfoxide) or soyasaponin I at different concentrations of 0.5, 1 or 2 μM to the media, the cells were fixed with 4% PFA in PBS at 4° C. for 4-15 minutes. The cells were permeabilized with 0.5% Triton X-100 for 5 minutes and blocked with 5% normal serum (a mixture of normal donkey, goat and horse sera) for 1 hour at room temperature.
The cells were incubated with anti-GFAP (1:1,000, Chemicon), anti-NeuN (1:500, Chemicon), anti-MAP2 (1:2,500, Sigma) and anti-TUJ1 (1:2,000, Sigma) primary antibodies for 1 hour at room temperature. The secondary antibodies and scanning method used were the same as in (2).
Cell counting was performed as reported by Park H J et al. (Phytother Res, 2008). The average length per neurite of the MAP2-positive cells with longer neurites more than double the cell body width was counted from 10-12 confocal laser microscopic fields that were randomly chosen per the cultured cover glass. Primary branches, which directly outgrow from the cell body, were counted when the length of the primary branches was 2 times or longer than the cell body width. All secondary and tertiary branches that come from the primary and secondary branches, respectively, were also counted. The numbers of the branches were also counted from 10-12 confocal laser microscopic fields that were randomly chosen per each cover glass on which the neuronal cells were grown and immunostained with MAP2 antibodies. Analysis of the neurite length and the numbers of the branches was performed with LSM Image Examiner ver. 2.80 (Carl Zeiss).

[2] = tested on: GAD67-, VGluT1-, ChAT-positive neurons and OX42 reactive microglia in the hippocampus; assay: Immunohistochemical analysis of GAD67, VGluT1, ChAT, OX42 in hippocampus (Experimental Example 1); type: in vivo, rat
Method: Immunostaining was carried out using antibodies against VGluT1 (diluted 1:500, Chemicon), ChAT (1:500, Chemicon), GFAP (1:1,000, Chemicon), tyrosine hydroxylase (TH, 1:500, Chemicon) and OX42 (CD11b/c, 1:250, Serotec) as primary antibodies instead of the anti-BrdU antibodies used in (4). The other process was the same as in (4), except that incubation was performed at 37° C. for 30 minutes in 2 N HCl.
(§1) In the immunohistochemical analysis, the number of the cells immnunostained against each antibody was counted from 5 or 6 hippocampal coronal sections. For each staining analysis, every fifth cryosections of the hippocampal region of brain tissues (AP: bregma −4.5 to −4.3 mm) were taken for immunostaining. The number of the immnunostained cells was represented as an average of number of cells in the hippocampal region of one brain slice.
(§2) The number of the VGluT1- and GAD-positive cells in the brain slice samples 1 week and 4 weeks after the administration of soyasaponin I was presented per microscopic field (×400-VGluT1, ×800-GAD67) and the number of the ChAT-positive cells was presented per each hippocampal region (10-12 confocal laser microscopic fields). 5-11 animals were used per group. Western blotted membranes were analyzed using the multi-gauge, bio-imaging program on LAS-4000 Mini (Fujifilm Life Science, Stamford, Conn., USA). Densitometeric analysis of the expression ratios of VGluT1/β-actin, GAD65/67/β-actin and ChAT/β-actin was normalized to the vehicle group.

[3] = tested on: newly born neural precursor cells in hippocampal tissue slices; assay: Immunohistochemical analysis of BrdU and subtype markers 4 weeks after oral administration (Experimental Example 2); type: in vivo, rat; set-up: Number of BrdU-positive cells and newly born dentate granular cells (DGCs) versus IBO group / Number of cells expressing both NeuN and BrdU versus ibotenic acid-administered group / Cholinergic neurons (total endogenous ChAT-positive cells) at 4 weeks versus 1 week after oral administration: dose or concentration left out as unconfirmed
Text: In order to confirm the survival and differentiation of newly born neural precursor cells 4 weeks after the oral administration of soyasaponin I, it was observed whether the BrdU-expressing cells express a mature neuron marker and cell subtype markers (NeuN, VGluT1, GAD67) simultaneously.
After conducting the 3 behavioral tests, the rats were sacrificed for immunohistochemical analysis. Over 5 animals from each group were used for the immunohistochemical analysis.
Following the same procedure as described in (4) of Experimental Example 2, incubation was performed at 37° C. for 30 minutes in 2 N HCl after permeabilization in 0.5% Triton X-100 for 20 minutes for double staining of BrdU/subtype cell markers ([…], VGluT1, NeuN).
as §1, §2

[4] = 4 weeks after oral administration
[5] = soyasaponin I 10 mg/g group (so in the source), 4 weeks after oral administration
[6] = soyasaponin I group (so in the source), 4 weeks after oral administration

C[C@@H]1O[C@@H](O[C@H]2[C@H](O[C@H]3[C@H](O[C@H]4CC[C@@]5(C)[C@@H](CC[C@]6(C)[C@@H]5CC=C5[C@@H]7CC(C)(C)C[C@@H](O)[C@]7(C)CC[C@]56C)[C@@]4(C)CO)O[C@H](C(=O)O)[C@@H](O)[C@@H]3O)O[C@H](CO)[C@H](O)[C@@H]2O)[C@H](O)[C@H](O)[C@H]1O [soyasaponin I]
Neurite length (MAP2) increase compared to the normal group ([1]; 1 μM soyasaponin I for 4 days): 2.2 fold | Number of NeuN-expressing cells (differentiation into mature neurons) ([1]; 0.5 and 1 μM, concentration-dependent): increased | Astrocytes expressing glial fibrillary acidic protein (GFAP) in the cultures ([1]; hippocampal neural precursor cell cultures): hardly observed | Increase in TUJ1-expressing cells compared to the normal group ([1]; soyasaponin I 0.5 μM group): about 4 fold | Average neurite length ([1]; soyasaponin I 1 μM group): markedly increased | Numbers of both primary and secondary branches ([1]; soyasaponin I 1 μM group): markedly increased | Number of VGluT1-positive cells ([2]; 10 mg/kg oral): 57.33±2.43 cells per microscopic field | Number of VGluT1-positive cells compared to the IBO group ([2]; 5, 10, 20 mg/kg oral): increased up to the level of the normal group | OX42 (reactive microglia) intensity normalized to the normal group ([2]; DG and CA1 regions, 5, 10, 20 mg/kg): decreased in a dose-dependent manner; also recorded: decreased again to the level of the normal model | Number of BrdU-positive cells in hippocampal tissue slices at 4 weeks versus 1 week after oral administration [3, 4]: reduced to less than half | Ratio of the BrdU-positive cells that express VGluT1, NeuN or GAD67 at the same time [3, 4]: no significant difference | BrdU-positive cells among hippocampal cells expressing GFAP, TH and ChAT ([3]; 4 weeks after oral administration, any group): barely detected | Number of BrdU-positive cells expressing GAD67 versus IBO group [3, 5]: 2.8 times | Number of BrdU-positive cells expressing VGluT1 versus IBO group [3, 5]: higher | Cholinergic neurons (total endogenous ChAT-positive cells) at 4 weeks versus 1 week after oral administration ([3]; soyasaponin I group (so in the source)): maintained at a similar level | Number of BrdU-positive cells and newly born dentate granular cells (DGCs) versus IBO group [3, 6]: approximately 3.5 fold | Number of cells expressing both NeuN and BrdU versus ibotenic acid-administered group [3, 6]: 3 times
